For series [1] the following is noted: 313.15 K; 84.51 kPa; Liquid; Frequency=3 MHz; Sing-around technique in a fixed-path interferometer.
A short description of series [2]: mn = molality of the nth substance listed, in mol/kg. The note with it: 84.51 kPa, Liquid; for speed of sound: Frequency=3 MHz, Sing-around technique in a fixed-path interferometer; for mass density: Vibrating tube method.

± gives the expanded uncertainty stated by the source.

For the compound `O` [water], the speed of sound in series [1] was 1529.2 ± 1.2 m/s.
Regarding `O=[N+]([O-])[O-].[Na+]` [sodium nitrate] + O, the speed of sound is on record as 1468.2 ± 1.5 m/s in series [2] (288.15 K, m1 = 0.035); 1484.2 ± 1.5 m/s in series [2] (293.15 K, m1 = 0.035); 1498.3 ± 1.5 m/s in series [2] (298.15 K, m1 = 0.035); 1510.5 ± 1.5 m/s in series [2] (303.15 K, m1 = 0.035); 1521.1 ± 1.5 m/s in series [2] (308.15 K, m1 = 0.035); 1530.1 ± 1.5 m/s in series [2] (313.15 K, m1 = 0.035). Besides, the mass density in series [2] (288.15 K, m1 = 0.035) worked out at 1001.14 ± 0.2 kg/m3; in series [2] (293.15 K, m1 = 0.035), 1000.21 ± 0.2 kg/m3; in series [2] (298.15 K, m1 = 0.035), 999.017 ± 0.2 kg/m3; in series [2] (303.15 K, m1 = 0.035) it was 997.592 ± 0.2 kg/m3; in series [2] (308.15 K, m1 = 0.035), 995.954 ± 0.2 kg/m3; in series [2] (313.15 K, m1 = 0.035), 994.12 ± 0.2 kg/m3.
For the compound `O` [water] + CCCCCCCCCCCCn1cc[n+](C)c1.[Br-], the speed of sound in series [2] (313.15 K, m2 = 0) was 1529.2 ± 1.2 m/s.
As to `Cl.N` [ammonium chloride (NH4Cl)] + O, the speed of sound in series [2] (288.15 K, m1 = 0.035) worked out at 1468.2 ± 1.4 m/s; in series [2] (293.15 K, m1 = 0.035), 1484.2 ± 1.4 m/s; in series [2] (298.15 K, m1 = 0.035), 1498.4 ± 1.4 m/s; in series [2] (303.15 K, m1 = 0.035) it was 1510.7 ± 1.4 m/s; in series [2] (308.15 K, m1 = 0.035), 1521.3 ± 1.4 m/s; in series [2] (313.15 K, m1 = 0.035), 1530.4 ± 1.4 m/s. In addition, the mass density in series [2] (288.15 K, m1 = 0.035) amounted to 999.719 ± 0.17 kg/m3; in series [2] (293.15 K, m1 = 0.035) it was 998.814 ± 0.17 kg/m3; in series [2] (298.15 K, m1 = 0.035), 997.645 ± 0.17 kg/m3; in series [2] (303.15 K, m1 = 0.035), 996.243 ± 0.17 kg/m3; in series [2] (308.15 K, m1 = 0.035), 994.624 ± 0.18 kg/m3; in series [2] (313.15 K, m1 = 0.035) it was 992.807 ± 0.18 kg/m3.
As to `C[N+](C)(C)C.[Cl-]` [tetramethylammonium chloride] + O, the speed of sound is reported as 1470.2 ± 1.8 m/s in series [2] (288.15 K, m1 = 0.035); 1486.1 ± 1.9 m/s in series [2] (293.15 K, m1 = 0.035); 1500.1 ± 1.9 m/s in series [2] (298.15 K, m1 = 0.035); 1512.3 ± 1.9 m/s in series [2] (303.15 K, m1 = 0.035); 1522.8 ± 1.9 m/s in series [2] (308.15 K, m1 = 0.035); 1531.7 ± 1.9 m/s in series [2] (313.15 K, m1 = 0.035). For the same compound, the mass density in series [2] (288.15 K, m1 = 0.035) stood at 999.201 ± 0.42 kg/m3; in series [2] (293.15 K, m1 = 0.035), 998.29 ± 0.42 kg/m3; in series [2] (298.15 K, m1 = 0.035) it was 997.12 ± 0.42 kg/m3; in series [2] (303.15 K, m1 = 0.035), 995.716 ± 0.42 kg/m3; in series [2] (308.15 K, m1 = 0.035) it was 994.093 ± 0.42 kg/m3; in series [2] (313.15 K, m1 = 0.035) it was 992.272 ± 0.42 kg/m3.
Regarding `[Cl-].[Na+]` [sodium chloride] + O, the speed of sound was 1468.8 ± 1.5 m/s in series [2] (288.15 K, m1 = 0.035); 1484.9 ± 1.5 m/s in series [2] (293.15 K, m1 = 0.035); 1511.3 ± 1.5 m/s in series [2] (303.15 K, m1 = 0.035); 1521.9 ± 1.5 m/s in series [2] (308.15 K, m1 = 0.035); 1530.9 ± 1.5 m/s in series [2] (313.15 K, m1 = 0.035). For the same compound, the mass density in series [2] (288.15 K, m1 = 0.035) worked out at 1000.55 ± 0.2 kg/m3; in series [2] (293.15 K, m1 = 0.035) it was 999.636 ± 0.2 kg/m3; in series [2] (298.15 K, m1 = 0.035) it was 998.457 ± 0.2 kg/m3; in series [2] (303.15 K, m1 = 0.035), 997.046 ± 0.2 kg/m3; in series [2] (308.15 K, m1 = 0.035), 995.419 ± 0.2 kg/m3; in series [2] (313.15 K, m1 = 0.035), 993.592 ± 0.2 kg/m3.
Consider `O=C([O-])CC(O)(CC(=O)[O-])C(=O)[O-].[Na+].[Na+].[Na+]` [trisodium citrate] + O, for which the speed of sound in series [2] (288.15 K, m1 = 0.035) stood at 1474.7 ± 1.6 m/s; in series [2] (293.15 K, m1 = 0.035), 1490.6 ± 1.6 m/s; in series [2] (298.15 K, m1 = 0.035) it was 1504.5 ± 1.6 m/s; in series [2] (303.15 K, m1 = 0.035), 1516.7 ± 1.6 m/s; in series [2] (308.15 K, m1 = 0.035) it was 1527.1 ± 1.6 m/s; in series [2] (313.15 K, m1 = 0.035) it was 1536 ± 1.6 m/s. Further, the mass density in series [2] (288.15 K, m1 = 0.035) is 1005.71 ± 0.26 kg/m3; in series [2] (293.15 K, m1 = 0.035), 1004.75 ± 0.26 kg/m3; in series [2] (298.15 K, m1 = 0.035), 1003.53 ± 0.26 kg/m3; in series [2] (303.15 K, m1 = 0.035), 1002.08 ± 0.26 kg/m3; in series [2] (308.15 K, m1 = 0.035), 1000.42 ± 0.26 kg/m3; in series [2] (313.15 K, m1 = 0.035) it was 998.572 ± 0.26 kg/m3.
As to `[Cl-].[K+]` [potassium chloride] + O, the speed of sound stood at 1468.5 ± 1.5 m/s in series [2] (288.15 K, m1 = 0.035); 1484.5 ± 1.5 m/s in series [2] (293.15 K, m1 = 0.035); 1498.7 ± 1.5 m/s in series [2] (298.15 K, m1 = 0.035); 1510.9 ± 1.5 m/s in series [2] (303.15 K, m1 = 0.035); 1521.5 ± 1.5 m/s in series [2] (308.15 K, m1 = 0.035); 1530.5 ± 1.5 m/s in series [2] (313.15 K, m1 = 0.035). For the same compound, the mass density in series [2] (288.15 K, m1 = 0.035) is 1000.79 ± 0.2 kg/m3; in series [2] (293.15 K, m1 = 0.035) it was 999.873 ± 0.2 kg/m3; in series [2] (298.15 K, m1 = 0.035) it was 998.698 ± 0.2 kg/m3; in series [2] (303.15 K, m1 = 0.035), 997.288 ± 0.2 kg/m3; in series [2] (308.15 K, m1 = 0.035), 995.661 ± 0.2 kg/m3; in series [2] (313.15 K, m1 = 0.035), 993.836 ± 0.2 kg/m3.
As for `O=S(=O)([O-])[O-].[Na+].[Na+]` [sodium sulfate] + O, the speed of sound in series [2] (288.15 K, m1 = 0.035) is listed as 1472.6 ± 1.6 m/s; in series [2] (293.15 K, m1 = 0.035) it was 1488.6 ± 1.6 m/s; in series [2] (298.15 K, m1 = 0.035), 1502.6 ± 1.6 m/s; in series [2] (303.15 K, m1 = 0.035), 1514.8 ± 1.6 m/s; in series [2] (308.15 K, m1 = 0.035) it was 1525.3 ± 1.6 m/s; in series [2] (313.15 K, m1 = 0.035) it was 1534.2 ± 1.6 m/s. The mass density was found to be 1003.68 ± 0.26 kg/m3 in series [2] (288.15 K, m1 = 0.035); 1002.73 ± 0.26 kg/m3 in series [2] (293.15 K, m1 = 0.035); 1001.52 ± 0.26 kg/m3 in series [2] (298.15 K, m1 = 0.035); 1000.09 ± 0.26 kg/m3 in series [2] (303.15 K, m1 = 0.035); 998.436 ± 0.26 kg/m3 in series [2] (308.15 K, m1 = 0.035); 996.589 ± 0.26 kg/m3 in series [2] (313.15 K, m1 = 0.035).
For the compound `[Cl][Fe]([Cl])[Cl]` [ferric chloride] + O, the speed of sound in series [2] (288.15 K, m1 = 0.035) is recorded as 1470.9 ± 1.5 m/s; in series [2] (293.15 K, m1 = 0.035) it was 1486.8 ± 1.5 m/s; in series [2] (298.15 K, m1 = 0.035) it was 1500.8 ± 1.5 m/s; in series [2] (303.15 K, m1 = 0.035), 1513 ± 1.5 m/s; in series [2] (308.15 K, m1 = 0.035), 1523.5 ± 1.5 m/s; in series [2] (313.15 K, m1 = 0.035), 1532.4 ± 1.5 m/s. The mass density in series [2] (288.15 K, m1 = 0.035) turned out to be 1003.96 ± 0.2 kg/m3; in series [2] (293.15 K, m1 = 0.035), 1003.05 ± 0.2 kg/m3; in series [2] (298.15 K, m1 = 0.035), 1001.87 ± 0.2 kg/m3; in series [2] (303.15 K, m1 = 0.035), 1000.46 ± 0.2 kg/m3; in series [2] (308.15 K, m1 = 0.035), 998.83 ± 0.2 kg/m3; in series [2] (313.15 K, m1 = 0.035) it was 997.003 ± 0.2 kg/m3.
Regarding `O=C([O-])[O-].[Na+].[Na+]` [sodium carbonate] + O, the speed of sound is 1473.1 ± 1.4 m/s in series [2] (288.15 K, m1 = 0.035); 1489.1 ± 1.4 m/s in series [2] (293.15 K, m1 = 0.035); 1503 ± 1.4 m/s in series [2] (298.15 K, m1 = 0.035); 1515.2 ± 1.4 m/s in series [2] (303.15 K, m1 = 0.035); 1525.7 ± 1.4 m/s in series [2] (308.15 K, m1 = 0.035); 1534.6 ± 1.4 m/s in series [2] (313.15 K, m1 = 0.035). Besides, the mass density was determined as 1003.04 ± 0.17 kg/m3 in series [2] (288.15 K, m1 = 0.035); 1002.09 ± 0.17 kg/m3 in series [2] (293.15 K, m1 = 0.035); 1000.88 ± 0.17 kg/m3 in series [2] (298.15 K, m1 = 0.035); 999.439 ± 0.17 kg/m3 in series [2] (303.15 K, m1 = 0.035); 997.791 ± 0.17 kg/m3 in series [2] (308.15 K, m1 = 0.035); 995.95 ± 0.17 kg/m3 in series [2] (313.15 K, m1 = 0.035).
As to `[Cl-].[Cl-].[Mg+2]` [magnesium chloride] + O, the speed of sound is 1471.1 ± 1.6 m/s in series [2] (288.15 K, m1 = 0.035); 1487.1 ± 1.6 m/s in series [2] (293.15 K, m1 = 0.035); 1501.3 ± 1.6 m/s in series [2] (298.15 K, m1 = 0.035); 1513.5 ± 1.6 m/s in series [2] (303.15 K, m1 = 0.035); 1524 ± 1.6 m/s in series [2] (308.15 K, m1 = 0.035). For the same compound, the mass density in series [2] (288.15 K, m1 = 0.035) was determined as 1002.4 ± 0.26 kg/m3; in series [2] (293.15 K, m1 = 0.035) it was 1001.48 ± 0.26 kg/m3; in series [2] (298.15 K, m1 = 0.035), 1000.31 ± 0.26 kg/m3; in series [2] (303.15 K, m1 = 0.035) it was 998.899 ± 0.26 kg/m3; in series [2] (308.15 K, m1 = 0.035), 997.276 ± 0.26 kg/m3; in series [2] (313.15 K, m1 = 0.035) it was 995.455 ± 0.26 kg/m3.

For orientation: speed of sound means how fast a sound wave travels through the sample. In general, mass density refers to mass per unit of volume.
